Assays:
Assay in all cases: combination Emax (second highest fraction inhibited in the dose matrix, 72 h); higher = more inhibition; extreme values may be limits of the assay
[1] = test system: KARPAS-231 (B-Cell Non-Hodgkin's Lymphoma)
Summary of the method: (§1)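 Cell lines grown in DMEM/F12 or RPMI with 10% FBS were plated in 1536-well plates and held 24 hours at 37°C, 5% CO2 before 72 hours of exposure to two-drug dose matrices, with DMSO typically at 0.2%. CellTiter-Glo 2.0 luminescence gave viability, which was converted to inhibition. Vehicle wells were set to 0 and blank wells to 1. Combination Emax is the second-highest inhibition in the matrix, and Bliss excess is the observed combination effect minus the expected EA + EB − EA·EB, where EA and EB are the single-agent effects.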

[2] = test system: 8305C (Thyroid Gland Carcinoma)
Summary of the method: as §1

[3] = test system: NCI-H2461 (Mesothelioma)
Summary of the method: as §1

[4] = test system: COLO-829 (Melanoma)
Summary of the method: as §1

[5] = test system: TE-4 (Esophageal Squamous Cell Carcinoma)
Summary of the method: as §1

[6] = test system: SW626 (Colorectal Carcinoma)
Summary of the method: as §1

[7] = test system: Hs-633T (Other Solid Carcinomas)
Summary of the method: as §1

[8] = test system: SUP-T1 (T-Lymphoblastic Leukemia)
Summary of the method: as §1

[9] = test system: LU-139 (Small Cell Lung Carcinoma)
Summary of the method: as §1

[10] = test system: MHH-PREB-1 (B-Cell Non-Hodgkin's Lymphoma)
Summary of the method: as §1

[11] = test system: 639-V (Bladder Carcinoma)
Summary of the method: as §1

[12] = test system: PCI-30 (Head and Neck Carcinoma)
Summary of the method: as §1

[13] = test system: SH-4 (Melanoma)
Summary of the method: as §1

[14] = test system: SU-DHL-6 (B-Cell Non-Hodgkin's Lymphoma)
Summary of the method: as §1

[15] = test system: SK-OV-3 (Ovarian Carcinoma)
Summary of the method: as §1

[16] = test system: CAPAN-1 (Pancreatic Carcinoma)
Summary of the method: as §1

[17] = test system: NCI-H747 (Colorectal Carcinoma)
Summary of the method: as §1

[18] = test system: RKO (Colorectal Carcinoma)
Summary of the method: as §1

[19] = test system: Mewo (Melanoma)
Summary of the method: as §1

SMILES	combination Emax [1]	combination Emax [2]	combination Emax [3]	combination Emax [4]	combination Emax [5]	combination Emax [6]	combination Emax [7]	combination Emax [8]	combination Emax [9]	combination Emax [10]	combination Emax [11]	combination Emax [12]	combination Emax [13]	combination Emax [14]	combination Emax [15]	combination Emax [16]	combination Emax [17]	combination Emax [18]	combination Emax [19]
COc1nnc2ccc(N3CCC(c4ccc(OCCN5CCN(C)C(=O)[C@H]5C)cc4)CC3)nn12 [AZD5153] + CCN(CCO)CCCOc1ccc2c(Nc3cc(CC(=O)Nc4cccc(F)c4)[nH]n3)ncnc2c1 [AZD2811] (first compound max 1 µM, 7x7, partner max 1 µM)	0.514	0.594	0.592	0.3	0.467	0.735	0.746	0.786	0.903	0.514	0.681	0.41	0.613	0.903	0.376	0.353	0.734	0.812	0.593
Cc1nc(Nc2ncc(C(=O)Nc3c(C)cccc3Cl)s2)cc(N2CCN(CCO)CC2)n1 [Dasatinib] + CC(=O)Nc1cccc(-n2c(=O)n(C3CC3)c(=O)c3c(Nc4ccc(I)cc4F)n(C)c(=O)c(C)c32)c1 [Trametinib] (first compound max 2 µM, 7x7, partner max 1 µM)	0.476	0.763	0.431	0.672	0.857	0.849	0.939	0.577	0.0497	0.0875	0.466	0.643	0.935	1	0.392	0.615	0.909	0.885	0.589
NC1(C(=O)N[C@@H](CCO)c2ccc(Cl)cc2)CCN(c2ncnc3[nH]ccc23)CC1 [Capivasertib] + CC(C)n1c(=O)n(C)c2cnc3cc(F)c(-c4ccc(OCCCN5CCCCC5)nc4)cc3c21 [AZD1390] (first compound max 10 µM, 7x7, partner max 0.3 µM)	0.215	0.436	0.6	0.201	0.616	0.273	0.258	0.718	0.0539	0.21	0.252	0.298	0.359	1	0.383	0.044	0.523	0.524	0.365
CC(=O)c1c(C)c2cnc(Nc3ccc(N4CCNCC4)cn3)nc2n(C2CCCC2)c1=O [Palbociclib] + CC1(C)CCC(CN2CCN(c3ccc(C(=O)NS(=O)(=O)c4ccc(NCC5CCOCC5)c([N+](=O)[O-])c4)c(Oc4cnc5[nH]ccc5c4)c3)CC2)=C(c2ccc(Cl)cc2)C1 [Venetoclax] (first compound max 10 µM, 7x7, partner max 1 µM)	0.889	0.431	0.308	0.298	0.217	0.153	0.49	0.618	0.37	0.412	0.147	0.223	0.271	0.976	0.144	0.21	0.343	0.315	0.437
C[C@@H](c1ccc2nccn2c1)n1nnc2ncc(-c3cnn(C)c3)nc21 [Savolitinib] + CC1(C)CCC(CN2CCN(c3ccc(C(=O)NS(=O)(=O)c4ccc(NCC5CCOCC5)c([N+](=O)[O-])c4)c(Oc4cnc5[nH]ccc5c4)c3)CC2)=C(c2ccc(Cl)cc2)C1 [Venetoclax] (first compound max 1 µM, 7x7, partner max 1 µM)	0.866	0.217	0.301	0.209	0.145	0.129	0.16	0.131	0.281	0.0731	0.121	0.143	0.139	0.465	0.121	0.181	0.181	0.166	0.194
C[C@@H](c1ccc2nccn2c1)n1nnc2ncc(-c3cnn(C)c3)nc21 [Savolitinib] + Cc1c2c(nn1C)CSCc1cc(n(C)n1)CSc1cc(c3ccccc3c1)OCCCc1c(C(=O)O)n(C)c3c-2c(Cl)ccc13 [AZD5991] (first compound max 1 µM, 7x7, partner max 1 µM)	0.606	0.196	0.345	0.242	0.422	0.221	0.12	0.138	0.126	0.0906	0.21	0.146	0.192	1	0.112	0.242	0.337	0.211	0.265
Cn1cnc2c(F)c(Nc3ccc(Br)cc3Cl)c(C(=O)NOCCO)cc21 [Selumetinib] + CC(C)n1c(=O)n(C)c2cnc3cc(F)c(-c4ccc(OCCCN5CCCCC5)nc4)cc3c21 [AZD1390] (first compound max 10 µM, 7x7, partner max 0.3 µM)	0.225	0.379	0.337	0.481	0.226	0.562	0.433	0.0785	0.0318	0.108	0.238	0.203	0.854	0.265	0.238	0.376	0.702	0.606	0.403
CC(=O)c1c(C)c2cnc(Nc3ccc(N4CCNCC4)cn3)nc2n(C2CCCC2)c1=O [Palbociclib] + Cc1c2c(nn1C)CSCc1cc(n(C)n1)CSc1cc(c3ccccc3c1)OCCCc1c(C(=O)O)n(C)c3c-2c(Cl)ccc13 [AZD5991] (first compound max 10 µM, 7x7, partner max 1 µM)	0.657	0.666	0.377	0.388	0.966	0.336	0.519	0.656	0.25	0.511	0.269	0.276	0.314	1	0.179	0.245	0.608	0.472	0.569
NC1(C(=O)N[C@@H](CCO)c2ccc(Cl)cc2)CCN(c2ncnc3[nH]ccc23)CC1 [Capivasertib] + C[C@@H]1COCCN1C2=NC(=NC(=C2)C3(CC3)[S@](=N)(=O)C)C4=C5C=CNC5=NC=C4 [AZD6738] (first compound max 10 µM, 7x7, partner max 10 µM)	0.691	0.683	0.797	0.563	0.818	0.68	0.894	0.866	0.25	0.749	0.496	0.482	0.492	1	0.493	0.364	0.626	0.938	0.557
Cn1cnc2c(F)c(Nc3ccc(Br)cc3Cl)c(C(=O)NOCCO)cc21 [Selumetinib] + CCN(CCO)CCCOc1ccc2c(Nc3cc(CC(=O)Nc4cccc(F)c4)[nH]n3)ncnc2c1 [AZD2811] (first compound max 10 µM, 7x7, partner max 1 µM)	0.609	0.438	0.397	0.506	0.422	0.624	0.486	0.413	0.247	0.134	0.342	0.233	0.906	0.385	0.226	0.426	0.793	0.838	0.444
CN(C)CCCOc1ccc(-c2ccc3ncc4c(c3c2)n(C2CCOCC2)c(=O)n4C)cn1 [AZD0156] + O=C(c1cc(Cc2n[nH]c(=O)c3ccccc23)ccc1F)N1CCN(C(=O)C2CC2)CC1 [Olaparib] (first compound max 3 µM, partner max 3 µM)	0.371	0.441	0.292	0.0677	0.206	0.164	0.57	0.432	0.264	0.378	0.443	0.234	0.327	0.729	0.228	0.295	0.339	0.284	0.322
COc1nnc2ccc(N3CCC(c4ccc(OCCN5CCN(C)C(=O)[C@H]5C)cc4)CC3)nn12 [AZD5153] + C=CCn1c(=O)c2cnc(Nc3ccc(N4CCN(C)CC4)cc3)nc2n1-c1cccc(C(C)(C)O)n1 [AZD1775] (first compound max 1 µM, partner max 1 µM)	0.978	0.674	0.655	0.283	0.892	0.75	0.798	0.821	0.89	0.825	0.714	0.395	0.65	0.941	0.506	0.549	0.782	0.841	0.645
COc1cc2ncnc(Nc3ccc(F)c(Cl)c3)c2cc1OCCCN1CCOCC1 [Gefitinib] + CC(C)n1c(=O)n(C)c2cnc3cc(F)c(-c4ccc(OCCCN5CCCCC5)nc4)cc3c21 [AZD1390] (first compound max 10 µM, 7x7, partner max 0.3 µM)	0.24	0.298	0.256	0.143	0.981	0.0985	0.203	0.382	0.0288	0.123	0.158	0.131	0.149	0.433	0.285	0.253	0.369	0.0688	0.0376
